Reference: PubChem BioAssay AID651760 (The Scripps Research Institute Molecular Screening Center, 2012)
Activity calls are given as the source filed them. How the calls were made is not given here.

molecular target: Hepatocyte nuclear factor 4-alpha (Homo sapiens) (UniProt P41235); test: IC50 for blocking HNF4 dimer formation – biochemical, luminescence, late stage, counter-screen for ABHD5-PLIN5 interaction inhibitor project, dose response (AID 651760); conditions: HNF4 dimerization, luminescence biochemical assay
Sequence (P41235 whole entry, looked up): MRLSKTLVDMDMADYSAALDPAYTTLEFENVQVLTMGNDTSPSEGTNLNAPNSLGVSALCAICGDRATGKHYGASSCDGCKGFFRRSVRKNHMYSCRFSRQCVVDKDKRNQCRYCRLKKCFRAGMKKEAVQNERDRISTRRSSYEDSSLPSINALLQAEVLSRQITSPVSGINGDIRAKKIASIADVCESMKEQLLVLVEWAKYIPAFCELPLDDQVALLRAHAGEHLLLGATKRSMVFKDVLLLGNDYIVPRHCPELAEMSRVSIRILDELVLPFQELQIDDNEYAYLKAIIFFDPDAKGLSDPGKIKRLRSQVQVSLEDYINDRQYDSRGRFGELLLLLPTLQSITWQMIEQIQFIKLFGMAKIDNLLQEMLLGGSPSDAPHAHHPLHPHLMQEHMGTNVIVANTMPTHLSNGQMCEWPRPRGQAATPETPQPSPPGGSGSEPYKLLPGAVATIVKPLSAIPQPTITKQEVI

Row | IC50 | SMILES
1 | 8.97 µM | CCOC(=O)c1c(NC(=O)/C=C/C(=O)O)sc(C)c1-c1ccc(C(C)(C)C)cc1
2 | > 39.8 µM (inactive) | O=c1[nH]c(C2CCN(S(=O)(=O)c3ccc(S(=O)(=O)NC4CC4)cc3)CC2)nc2c1nnn2Cc1ccc(F)cc1
3 | inactive | CCOC(=O)c1c(NC(C)=O)sc2c1CCC(C=O)=C2Sc1ccccc1
4 | > 39.8 µM (inactive) | COc1cc(OC)cc(C(=O)NC(=S)N(Cc2ccccc2)C(C)C)c1
5 | > 39.8 µM (inactive) | Cc1cc(C)c(NC(=O)CN2CCN3CCCC3C2)c(C)c1 (stereo not given)
6 | > 39.8 µM (inactive) | C=C[C@]1(C)C[C@@H](OC(=O)CSCCN(CC)CC)[C@]2(C)C(C)CC[C@]3(CCC(=O)[C@H]32)[C@@H](C)[C@@H]1O (stereo not given in full)
7 | > 39.8 µM (inactive) | COc1cc2c(cc1OC)C(C)N(CCc1ccc(Cl)cc1)CC2 (stereo not given)
8 | inactive | COc1ccc(C)c2sc(N(CCN(C)C)C(=O)/C=C/c3cccs3)nc12
9 | > 39.8 µM (inactive) | CC1CCN(S(=O)(=O)c2ccc(NC(=O)Cc3cccs3)cc2)CC1
10 | > 39.8 µM (inactive) | CN(C)CCOC1(Cc2ccc(F)cc2)CCC(C(C)(C)C)CC1 (stereo not given)
11 | > 39.8 µM (inactive) | Cc1nc2c(o1)CCc1ccccc1C2N1CCN(C)CC1 (stereo not given)
12 | 5.57 µM | CCN(CC)CCC(C)OC(c1ccccc1)c1ccccc1 (stereo not given)
13 | > 39.8 µM (inactive) | CN(C)CCCN(C(=O)CCc1ccccc1)c1nc2ccc(Cl)cc2s1
14 | > 39.8 µM (inactive) | CCCNC(=O)Nc1ccc2c(c1)N(C)C(=O)c1ccccc1S2
15 | > 39.8 µM (inactive) | CCCCOC(=O)Nc1cc(C(=O)OC)ccc1C(=O)OC
16 | > 39.8 µM (inactive) | CN(C)CCN(Cc1ccco1)c1ccccn1
17 | > 39.8 µM (inactive) | COc1ccccc1-c1cc(C(=O)NC2CCN(C)CC2)c2ccc(Cl)c(C)c2n1
18 | inactive | CC1=CC(C)(C)Nc2ccc(OC(=O)C(C)N3C(=O)c4ccccc4C3=O)cc21 (stereo not given)
19 | > 39.8 µM (inactive) | COc1ccc(NC(=S)N(CCCN2CCCC2)Cc2cccn2Cc2ccc(Cl)cc2)cc1Cl
20 | > 39.8 µM (inactive) | CCN(CC)CCN(CC(=O)Nc1c(C)cc(C)cc1C)C(=O)c1ccccc1

Row | IC50 | SMILES
21 | > 39.8 µM (inactive) | COCCN(CCOC)c1nc(N)c2c(N)nc3c(c2c1C#N)CC(=O)N3Cc1ccc(Cl)cc1
22 | > 39.8 µM (inactive) | O=c1[nH]c(C2CCN(S(=O)(=O)c3ccc(F)cc3)CC2)nc2c1nnn2Cc1ccc2c(c1)OCCO2
23 | inactive | CC(=O)Cc1cc(O)c2ccccc2c1OC(=O)c1ccc(Br)cc1
24 | 5.09 µM | CCN(CC)CCOc1ccc(/C(=C(/Cl)c2ccccc2)c2ccccc2)cc1
25 | > 39.8 µM (inactive) | CC(=O)Nc1ccc(S(=O)(=O)N2c3ccc(F)cc3CCC2C)cc1 (stereo not given)
26 | 2.8 µM | CC(C)c1ccc(N2C=Nc3ccc(C(C)C)cc3C2)cc1
27 | inactive | Cc1ccc2nc3cc([N+](=O)[O-])cc([N+](=O)[O-])c3cc2c1
28 | > 39.8 µM (inactive) | CC1CCN(S(=O)(=O)c2ccc(NC(=O)Cc3ccccc3)cc2)CC1
29 | 8.21 µM | CC(=O)Cc1cc(O)c2ccccc2c1OC(=O)c1ccccc1
30 | > 39.8 µM (inactive) | FC(F)(F)c1cccc(NC(=S)N(CCCN2CCCC2)Cc2cccn2Cc2ccc(Cl)cc2)c1
31 | > 39.8 µM (inactive) | CCN(CC)CCNC(=O)c1ccc(NC(=O)c2cn(-c3ccccc3)nc2-c2cccs2)cc1
32 | > 39.8 µM (inactive) | CN1CCC(=C2c3ccccc3CC(=O)c3sccc32)CC1
33 | 4.18 µM | CCOc1cc(N)c(Cl)cc1C(=O)NCC1CN(Cc2ccc(F)cc2)CCO1 (stereo not given)
34 | > 39.8 µM (inactive) | O=C(C[n+]1cccc(CNC(=O)c2ccc(OC(F)F)cc2)c1)Nc1cccc(C(F)(F)F)c1
35 | inactive | NC(=NCCCCCCN=C(N)/N=C(\N)Nc1ccc(Cl)cc1)/N=C(\N)Nc1ccc(Cl)cc1
36 | > 39.8 µM (inactive) | COc1cc(C)c2sc3ccccc3c(=O)c2c1NCCN(C)C
37 | inactive | O=C(/C(=C/O)N=Nc1ccc(Cl)cc1)c1ccncc1
38 | 6.03 µM | CCN(CC)CCOCCOC(=O)C1(c2ccccc2)CCCC1
39 | > 39.8 µM (inactive) | CN(C)CCCN(C(=O)CCc1ccccc1)c1nc2ccc(Br)cc2s1
40 | > 39.8 µM (inactive) | CCCCNC(=O)Nc1ccc2c(c1)N(C)C(=O)c1ccccc1S2
